We go through 30 substances from patent US8637484B2, “Modulation of growth hormone receptor expression and insulin-like growth factor expression” (Antisense Therapeutic Limited, priority 2003, dated 2014).

In the oligonucleotide strings, read from the 5' end, every base follows the letter of its sugar. An asterisk marks phosphorothioate; unmarked linkages are phosphodiester. Other units and linkages are bracketed, terminal groups are in braces. A string of capitals states the bases alone. e = 2'-O-(2-methoxyethyl) (MOE); [5mC] = 5-methylcytosine; d = 2'-deoxy (DNA)

In the first series the test system is human growth hormone receptor mRNA. The series is described as follows: Inhibition of human growth hormone receptor mRNA levels in MCF7 cells, quantitative real-time PCR. It is filed as cell-based. Further details: concentration or dose not given beside the values. The conditions noted are these: averages from three experiments. The protocol:
The human breast carcinoma cell line MCF-7 was obtained from the American Type Culture Collection (Manassas, Va.). MCF-7 cells were routinely cultured in DMEM low glucose (Gibco/Life Technologies, Gaithersburg, Md.) supplemented with 10% fetal calf serum (Gibco/Life Technologies, Gaithersburg, Md.). Cells were routinely passaged by trypsinization and dilution when they reached 90% confluence. Cells were seeded into 96-well plates (Falcon-Primaria #3872) at a density of 7000 cells/well for use in RT-PCR analysis.
(§1) When cells reached 65-75% confluency, they were treated with oligonucleotide. For cells grown in 96-well plates, wells were washed once with 100 μL OPTI-MEM™-1 reduced-serum medium (Invitrogen Corporation, Carlsbad, Calif.) and then treated with 130 μL of OPTI-MEM™-1 containing 3.75 μg/mL LIPOFECTIN™ (Invitrogen Corporation, Carlsbad, Calif.) and the desired concentration of oligonucleotide. Cells are treated and data are obtained in triplicate. After 4-7 hours of treatment at 37° C., the medium was replaced with fresh medium. Cells were harvested 16-24 hours after oligonucleotide treatment.
(§2) Total RNA was isolated using an RNEASY 96™ kit and buffers purchased from Qiagen Inc. (Valencia, Calif.) following the manufacturer's recommended procedures. Briefly, for cells grown on 96-well plates, growth medium was removed from the cells and each well was washed with 200 μL cold PBS. 150 μL Buffer RLT was added to each well and the plate vigorously agitated for 20 seconds. 150 μL of 70% ethanol was then added to each well and the contents mixed by pipetting three times up and down. The samples were then transferred to the RNEASY 96™ well plate attached to a QIAVAC™ manifold fitted with a waste collection tray and attached to a vacuum source. Vacuum was applied for 1 minute. 500 μL of Buffer RW1 was added to each well of the RNEASY 96™ plate and incubated for 15 minutes and the vacuum was again applied for 1 minute. An additional 500 μL of Buffer RW1 was added to each well of the RNEASY 96™ plate and the vacuum was applied for 2 minutes. 1 mL of Buffer RPE was then added to each well of the RNEASY 96™ plate and the vacuum applied for a period of 90 seconds. The Buffer RPE wash was then repeated and the vacuum was applied for an additional 3 minutes. The plate was then removed from the QIAVAC™ manifold and blotted dry on paper towels. The plate was then re-attached to the QIAVAC™ manifold fitted with a collection tube rack containing 1.2 mL collection tubes. RNA was then eluted by pipetting 140 μL of RNAse free water into each well, incubating 1 minute, and then applying the vacuum for 3 minutes.
(§3) Quantitation of growth hormone receptor mRNA levels was accomplished by real-time quantitative PCR using the ABI PRISM™ 7600, 7700, or 7900 Sequence Detection System (PE-Applied Biosystems, Foster City, Calif.) according to manufacturer's instructions. This is a closed-tube, non-gel-based, fluorescence detection system which allows high-throughput quantitation of polymerase chain reaction (PCR) products in real-time. As opposed to standard PCR in which amplification products are quantitated after the PCR is completed, products in real-time quantitative PCR are quantitated as they accumulate. This is accomplished by including in the PCR reaction an oligonucleotide probe that anneals specifically between the forward and reverse PCR primers, and contains two fluorescent dyes. A reporter dye (e.g., FAM or JOE, obtained from either PE-Applied Biosystems, Foster City, Calif., Operon Technologies Inc., Alameda, Calif. or Integrated DNA Technologies Inc., Coralville, Iowa) is attached to the 5′ end of the probe and a quencher dye (e.g., TAMRA, obtained from either PE-Applied Biosystems, Foster City, Calif., Operon Technologies Inc., Alameda, Calif. or Integrated DNA Technologies Inc., Coralville, Iowa) is attached to the 3′ end of the probe. When the probe and dyes are intact, reporter dye emission is quenched by the proximity of the 3′ quencher dye. […]
(Real-time PCR tracks product formation cycle by cycle.)
“272356 (antisense eA*eT*eG*eG*eA*dG*dG*d[5mC]*dT*dG*dG*dA*dG*dG*dT*eT*e[5mC]*eA*eA*eA) [compound 272356]”: the “% INHIB” value was determined as 63%.

For the substance “272357 (antisense eT*eA*eG*eG*eG*dT*d[5mC]*d[5mC]*dA*dT*d[5mC]*dT*dT*dT*d[5mC]*eA*eA*eG*eA*e[5mC]) [compound 272357]”, the “% INHIB” value was 62%.

In the case of “272358 (antisense eT*e[5mC]*eT*e[5mC]*e[5mC]*dA*dG*dA*dT*dA*dG*dA*dA*dT*d[5mC]*eT*eA*eA*eA*e[5mC]) [compound 272358]”, the “% INHIB” value came to 53%.

For “272359 (antisense eT*e[5mC]*e[5mC]*eA*eA*dA*dT*dA*dT*dT*d[5mC]*dT*dG*dG*dT*eA*e[5mC]*eT*eT*eT) [compound 272359]”, the “% INHIB” value was 72%.

As to “272360 (antisense eT*eA*eT*eT*eA*dG*dT*dT*dA*d[5mC]*d[5mC]*dT*dT*dG*dA*eG*eG*eA*eG*eA) [compound 272360]”, the “% INHIB” value is reported as 0%.

As to “272361 (antisense eA*eT*eT*eT*eT*d[5mC]*d[5mC]*dT*dT*d[5mC]*d[5mC]*dT*dA*dG*dA*eA*eA*eA*eT*eA) [compound 272361]”, the “% INHIB” value worked out at 10%.

In the next series the test system is mouse growth hormone receptor mRNA. Briefly: Inhibition of mouse growth hormone receptor mRNA levels in b.END cells, quantitative real-time PCR. It is filed as cell-based. To be noted: mouse growth hormone receptor mRNA, b.END cells, averages from three experiments. Also noted: % INHIB: concentration or dose not given beside the values. The protocol:
The mouse brain endothelial cell line b.END was obtained from Dr. Werner Risau at the Max Plank Instititute (Bad Nauheim, Germany). b.END cells were routinely cultured in DMEM, high glucose (Gibco/Life Technologies, Gaithersburg, Md.) supplemented with 10% fetal calf serum (Gibco/Life Technologies, Gaithersburg, Md.). Cells were routinely passaged by trypsinization and dilution when they reached 90% confluence. Cells were seeded into 96-well plates (Falcon-Primaria #3872) at a density of 3000 cells/well for use in RT-PCR analysis.
as §1, §2
as §3, with “probe.” for “probe. When the probe and dyes are intact, reporter dye emission is quenched by the proximity of the 3′ quencher dye.”
Regarding “227443 (antisense eT*eG*e[5mC]*eT*eT*dG*dG*d[5mC]*dA*dG*d[5mC]*dT*d[5mC]*dG*dT*eG*eG*eG*eT*eT) [compound 227443]”, the “% INHIB” value was determined as 0%.

As to “227444 (antisense eA*eT*eG*eG*e[5mC]*dT*dG*d[5mC]*dG*d[5mC]*d[5mC]*dT*dG*d[5mC]*dT*eT*eG*eG*e[5mC]*eA) [compound 227444]”, the “% INHIB” value is listed as 53%.

Regarding “227445 (antisense eT*eA*e[5mC]*e[5mC]*eT*dG*dA*dG*dA*d[5mC]*d[5mC]*dT*d[5mC]*dG*dG*eA*eG*eT*eT*eT) [compound 227445]”, the “% INHIB” value was determined as 69%.

Take “227446 (antisense eA*e[5mC]*eA*eA*eA*dG*dA*dT*d[5mC]*d[5mC]*dA*dT*dA*d[5mC]*d[5mC]*eT*eG*eA*eG*eA) [compound 227446]”: the “% INHIB” value came to 87%.

In the case of “227447 (antisense eG*e[5mC]*eT*eG*eG*dT*dG*dT*dA*dG*d[5mC]*d[5mC]*dT*d[5mC]*dA*e[5mC]*eT*eT*e[5mC]*e[5mC]) [compound 227447]”, the “% INHIB” value is 77%.

With “227448 (antisense eT*eT*eT*eG*e[5mC]*d[5mC]*dA*dA*dG*dA*dG*dT*dA*dG*d[5mC]*eT*eG*eG*eT*eG) [compound 227448]”, the “% INHIB” value came to 60%.

As to “227449 (antisense eA*e[5mC]*eG*eA*e[5mC]*dA*d[5mC]*dT*dT*dG*dG*dT*dG*dA*dA*eT*e[5mC]*eG*eA*eG) [compound 227449]”, the “% INHIB” value was 69%.

On to “227450 (antisense eT*eG*eG*e[5mC]*eT*dT*dT*d[5mC]*d[5mC]*d[5mC]*dT*dT*dT*dT*dA*eG*e[5mC]*eA*eT*eA) [compound 227450]”, for which the “% INHIB” value is on record as 71%.

Take “227451 (antisense eA*eT*eG*eA*eG*d[5mC]*dA*dA*dT*dT*d[5mC]*dT*dT*dG*d[5mC]*eA*eG*e[5mC]*eT*eT) [compound 227451]”: the “% INHIB” value is given as 49%.

For “227454 (antisense eA*eG*eT*eT*eG*dA*dA*dG*dT*dA*dA*d[5mC]*dA*dG*d[5mC]*eT*eG*eT*eT*eT) [compound 227454]”, the “% INHIB” value was 69%.

As to “227455 (antisense eA*eG*eT*eA*eG*dG*dG*dT*dA*dT*d[5mC]*d[5mC]*dA*dA*dA*eT*eG*eG*eA*eG) [compound 227455]”, the “% INHIB” value amounted to 43%.

Consider “227456 (antisense eG*eT*e[5mC]*e[5mC]*eA*dG*dT*dT*dG*dA*dG*dG*d[5mC]*d[5mC]*dA*eA*eT*eG*eG*eG) [compound 227456]”, for which the “% INHIB” value was 97%.

Take “227457 (antisense eG*eA*eA*eT*eT*dA*dT*d[5mC]*d[5mC]*dA*dT*d[5mC]*d[5mC]*d[5mC]*dT*eT*e[5mC]*eA*eG*eA) [compound 227457]”: the “% INHIB” value was 67%.

“227458 (antisense eG*eT*eA*e[5mC]*eT*dG*dA*dA*dT*dT*dT*d[5mC]*dA*dT*dA*e[5mC]*eT*e[5mC]*e[5mC]*eA) [compound 227458]”: the “% INHIB” value turned out to be 75%.

Turning to “227459 (antisense e[5mC]*eT*eG*eA*eA*d[5mC]*dT*d[5mC]*dG*d[5mC]*dT*dG*dT*dA*d[5mC]*eT*eT*eT*eT*e[5mC]) [compound 227459]”, the “% INHIB” value is 60%.

In the case of “227460 (antisense eA*eA*e[5mC]*eT*eG*dG*dA*dT*dA*dT*d[5mC]*dT*dT*d[5mC]*dT*eT*e[5mC]*eA*e[5mC]*eA) [compound 227460]”, the “% INHIB” value worked out at 43%.

Turning to “227461 (antisense eT*eG*e[5mC]*eT*eA*d[5mC]*dT*d[5mC]*d[5mC]*dA*dA*dA*dT*dA*dT*eT*e[5mC]*e[5mC]*eA*eA) [compound 227461]”, the “% INHIB” value is 75%.

Regarding “227462 (antisense eG*e[5mC]*eT*eT*eT*dG*dA*dA*dA*dA*dT*dA*dT*dA*dA*e[5mC]*eT*eA*e[5mC]*eA) [compound 227462]”, the “% INHIB” value came out at 31%.

“227463 (antisense eA*eT*e[5mC]*eA*eG*d[5mC]*dA*dT*d[5mC]*dT*dT*dA*dA*dT*d[5mC]*e[5mC]*eT*eT*eT*eG) [compound 227463]”: the “% INHIB” value came to 39%.

As to “227465 (antisense eT*eG*eA*eG*eA*dA*dG*dA*dT*d[5mC]*dT*dG*dG*dA*dT*e[5mC]*eA*eA*eT*e[5mC]) [compound 227465]”, the “% INHIB” value turned out to be 51%.

For “227466 (antisense eT*eT*eG*eT*eA*dG*dT*dT*dA*dT*d[5mC]*dA*dT*dG*dA*eA*eT*eG*e[5mC]*e[5mC]) [compound 227466]”, the “% INHIB” value is on record as 50%.

Turning to “227467 (antisense e[5mC]*eA*eT*e[5mC]*eA*dT*dT*dG*dT*dA*dG*dA*dA*dG*dT*e[5mC]*eG*eG*eG*eT) [compound 227467]”, the “% INHIB” value was 33%.

On to “227470 (antisense e[5mC]*eT*e[5mC]*e[5mC]*eA*dA*dG*dG*dA*dT*dA*d[5mC]*d[5mC]*dA*dG*e[5mC]*eT*eG*eA*eT) [compound 227470]”, for which the “% INHIB” value is 82%.

As for “227471 (antisense eA*eG*eG*e[5mC]*eA*d[5mC]*dA*dA*dG*dA*dG*dA*dT*d[5mC]*dA*eG*e[5mC]*eT*eT*e[5mC]) [compound 227471]”, the “% INHIB” value is recorded as 52%.
